Experimental data as given in ChEMBL document CHEMBL1201862, “PubChem BioAssay data set” (2004).
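Assay format: 96-well plates, 48-hour exposure. Here, GI50 denotes the concentration required for 50% inhibition of growth.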 Calls of active or inactive are those of the source. Rule as the data show it: active = GI50 up to about 1.1 µM and inactive = higher.

Legend:
Test in all cases: NCI anticancer screen, dose series, 48 h
[1] = test system: HOP-62
[2] = test system: HCT-15
[3] = test system: SK-MEL-28
[4] = test system: COLO 205
[5] = test system: SN12C
[6] = test system: U-251
[7] = test system: UACC-257
[8] = test system: Malme-3M
[9] = test system: K562
[10] = test system: NCI-H522
[11] = test system: UO-31
[12] = test system: NCI-H23
[13] = test system: 786-0
[14] = test system: A498
[15] = test system: KM12
[16] = test system: SF-268

Structure (SMILES) | GI50 [1] | GI50 [2] | GI50 [3] | GI50 [4] | GI50 [5] | GI50 [6] | GI50 [7] | GI50 [8] | GI50 [9] | GI50 [10] | GI50 [11] | GI50 [12] | GI50 [13] | GI50 [14] | GI50 [15] | GI50 [16]
CC(C)c1cccc(=O)c(O)c1 | 5.3 µM (inactive) | 1.54 µM | 1.5 µM (inactive) | 1.37 µM (inactive) | 5.51 µM (inactive) | 0.411 µM (active) | 1.66 µM (inactive) | 1.35 µM (inactive) | 2.21 µM (inactive) | 1.39 µM (inactive) | 3.94 µM (inactive) | 2.53 µM (inactive) | 3.4 µM (inactive) | 14.6 µM (inactive) | 8.34 µM (inactive) | 1.38 µM (inactive)
COc1ccc(C(=O)C(C(=O)CCC(=O)Nc2cccc(Cl)c2)c2ccc(OC)cc2)cc1 (stereo not drawn) | > 100 µM (inactive) | > 100 µM | > 100 µM (inactive) | > 100 µM (inactive) | > 100 µM (inactive) | > 100 µM (inactive) | > 100 µM (inactive) | > 100 µM (inactive) | > 100 µM (inactive) | > 100 µM (inactive) | > 100 µM (inactive) | > 100 µM (inactive) | > 100 µM (inactive) | > 100 µM (inactive) | > 100 µM (inactive) | > 100 µM (inactive)
NNC(=O)/C(=C/c1cccc([N+](=O)[O-])c1)NC(=O)c1ccccc1 | > 100 µM (inactive) | > 100 µM | > 100 µM (inactive) | > 100 µM (inactive) | > 100 µM (inactive) | > 100 µM (inactive) | > 100 µM (inactive) | > 100 µM (inactive) | > 100 µM (inactive) | > 100 µM (inactive) | > 100 µM (inactive) | > 100 µM (inactive) | > 100 µM (inactive) | > 100 µM (inactive) | > 100 µM (inactive) | > 100 µM (inactive)
Cc1cc(Br)ccc1/N=N/c1c(C)nn(-c2ccccc2)c1-c1ccccc1 | > 100 µM (inactive) | 9.82 µM | > 100 µM (inactive) | > 100 µM (inactive) | 97.5 µM (inactive) | 27 µM (inactive) | 49.3 µM (inactive) | > 100 µM (inactive) | 17 µM (inactive) | 51.6 µM (inactive) | > 100 µM (inactive) | > 100 µM (inactive) | 58.3 µM (inactive) | > 100 µM (inactive) | 57 µM (inactive) | > 100 µM (inactive)
COC1C=CC(C(=O)[N+]2=Cc3[nH]c4ccccc4c3CC2)O1 (stereo not drawn) | > 100 µM (inactive) | 78.5 µM | > 100 µM (inactive) | > 100 µM (inactive) | > 100 µM (inactive) | 37.9 µM (inactive) | > 100 µM (inactive) | > 100 µM (inactive) | 37.2 µM (inactive) | 34.9 µM (inactive) | > 100 µM (inactive) | > 100 µM (inactive) | > 100 µM (inactive) | > 100 µM (inactive) | > 100 µM (inactive) | > 100 µM (inactive)
N/C(=N\O)N/N=C/c1cccc(F)c1 | 26.9 µM (inactive) | 50.9 µM | > 100 µM (inactive) | 36.3 µM (inactive) | 44.2 µM (inactive) | 36.1 µM (inactive) | 52.4 µM (inactive) | 37.3 µM (inactive) | 19.4 µM (inactive) | 29.5 µM (inactive) | 28.3 µM (inactive) | 39 µM (inactive) | 30.4 µM (inactive) | 40 µM (inactive) | 34.1 µM (inactive) | 21.6 µM (inactive)
COC1OC(CBr)C(OC(=O)c2ccccc2)C(OS(=O)(=O)c2ccc(C)cc2)C1Br (stereo not drawn) | > 100 µM (inactive) | > 100 µM | > 100 µM (inactive) | > 100 µM (inactive) | > 100 µM (inactive) | > 100 µM (inactive) | > 100 µM (inactive) | > 100 µM (inactive) | > 100 µM (inactive) | > 100 µM (inactive) | > 100 µM (inactive) | > 100 µM (inactive) | > 100 µM (inactive) | > 100 µM (inactive) | > 100 µM (inactive) | > 100 µM (inactive)
CCN1C(=O)N(C)C(O)c2c1nc1ccccn1c2=O (stereo not drawn) | 28.1 µM (inactive) | 32.2 µM | 27.4 µM (inactive) | 21.2 µM (inactive) | 23.3 µM (inactive) | 30.8 µM (inactive) | 40.1 µM (inactive) | 38.6 µM (inactive) | 34 µM (inactive) | 25.3 µM (inactive) | 47.6 µM (inactive) | 24.9 µM (inactive) | 28.5 µM (inactive) | 25.6 µM (inactive) | 36.5 µM (inactive) | 25.4 µM (inactive)
